These results are taken from PubChem BioAssay AID651620 (Broad Institute, 2012).

In this experiment the test system is non-replicating M. tuberculosis, luciferase reporter. Nature of the experiment: inhibitors of non-replicating M. tuberculosis, dose response, luciferase, dry powder (AID 651620).

As to `[N-]=[N+]=NCCOCCNC(=O)CCCn1cc(CS(=O)c2nnc(-c3ccc(F)cc3)o2)nn1` (stereo unspecified), the IC90 – broadly, the concentration needed for an effect of 90% – is 125 µM.
